Experimental findings from PubChem BioAssay AID1845204 (Molecular Pharmacology Branch, DTP, NCI, 2023) are described below.

Where “and” joins values, the source holds several entries; their conditions need not be identical. Identical values can stand only once.

In the test the test system is HSSY-II tumor spheroid viability. Put plainly: Anticancer human tumor HSSY-II cell line growth inhibition.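 As to all read-outs here: spheroids exposed to compounds for seven days before reading.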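 As to viability, T/C: percent of DMSO vehicle control viability so 100% = untreated level.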 The settings on record: spheroids with HUVEC and MSC; for viability, T/C: stronger effect = lower value. In a few lines:
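Single agents and combinations were tested on spheroids built from tumor cells plus HUVEC and hMSC, at half-log dilutions starting at or near clinical Cmax, else 10 microM; final DMSO 0.25% (v/v).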

Setting [1] is: curve of first compound, second compound 0.003 µM.
The mark [2] stands for this setting: curve of first compound, second compound 0.00949 µM.
Setting [3] is: curve of first compound, second compound 0.03 µM.
Setting [4] is: curve of first compound, second compound 0.0949 µM.
The mark [5] stands for this setting: curve of first compound, second compound 0.3 µM.
Where [6] appears, read: second compound 0.003 µM, first compound 0.0316 µM.
The mark [7] stands for this setting: second compound 0.003 µM, first compound 0.1 µM.
[8] abbreviates: second compound 0.003 µM, first compound 0.316 µM.
[9] abbreviates: second compound 0.003 µM, first compound 1 µM.
The mark [10] stands for this setting: second compound 0.003 µM, first compound 3.16 µM.
Where [11] appears, read: second compound 0.003 µM, first compound 10 µM.
The mark [12] stands for this setting: second compound 0.00949 µM, first compound 0.0316 µM.
The mark [13] stands for this setting: second compound 0.00949 µM, first compound 0.1 µM.
Where [14] appears, read: second compound 0.00949 µM, first compound 0.316 µM.
Where [15] appears, read: second compound 0.00949 µM, first compound 1 µM.
[16] abbreviates: second compound 0.00949 µM, first compound 3.16 µM.
[17] abbreviates: second compound 0.00949 µM, first compound 10 µM.
Where [18] appears, read: second compound 0.03 µM, first compound 0.0316 µM.
[19] abbreviates: second compound 0.03 µM, first compound 0.1 µM.
Setting [20] is: second compound 0.03 µM, first compound 0.316 µM.
Where [21] appears, read: second compound 0.03 µM, first compound 1 µM.
The mark [22] stands for this setting: second compound 0.03 µM, first compound 3.16 µM.
[23] abbreviates: second compound 0.03 µM, first compound 10 µM.
The mark [24] stands for this setting: second compound 0.0949 µM, first compound 0.0316 µM.
Where [25] appears, read: second compound 0.0949 µM, first compound 0.1 µM.
The mark [26] stands for this setting: second compound 0.0949 µM, first compound 0.316 µM.
Setting [27] is: second compound 0.0949 µM, first compound 1 µM.
Setting [28] is: second compound 0.0949 µM, first compound 3.16 µM.
The mark [29] stands for this setting: second compound 0.0949 µM, first compound 10 µM.
[30] abbreviates: second compound 0.3 µM, first compound 0.0316 µM.
Setting [31] is: second compound 0.3 µM, first compound 0.1 µM.
[32] abbreviates: second compound 0.3 µM, first compound 0.316 µM.
The mark [33] stands for this setting: second compound 0.3 µM, first compound 1 µM.
The mark [34] stands for this setting: second compound 0.3 µM, first compound 3.16 µM.
Where [35] appears, read: second compound 0.3 µM, first compound 10 µM.

Turning to `Cc1cc(C)c(CNC(=O)c2cc(-c3ccc(CN4CCOCC4)cc3)cc3c2cnn3C2CCCC2)c(=O)[nH]1` + CC[C@@]1(O)C(=O)OCc2c1cc1n(c2=O)Cc2cc3c(CN(C)C)c(O)ccc3nc2-1, the IC50 runs as follows: under setting [1], above 10000 nM; under setting [2], below 31.6 nM; under setting [3], below 31.6 nM; under setting [4], below 31.6 nM; under setting [5], below 31.6 nM. For the same compound, the viability, T/C runs as follows: under setting [6], 79.2%; under setting [7], 81%; under setting [8], 81.3%; under setting [9], 81.9%; under setting [10], 79.1%; under setting [11], 64%. Moreover, the viability, T/C is 39.4% under setting [12]; 40.1% under setting [13]; 42.9% under setting [14]; 47.4% under setting [15]; 38% under setting [16]; 49.7% under setting [17]. Besides, the viability, T/C runs as follows: under setting [18], 6.06%; under setting [19], 7.28%; under setting [20], 7.77%; under setting [21], 9.15%; under setting [22], 9.78%; under setting [23], 11.9%. Also, the viability, T/C runs as follows: under setting [24], 6.68%; under setting [25], 11.9%; under setting [26], 7.28%; under setting [27], 7.31%; under setting [28], 8.02%; under setting [29], 9.19%. Also, the viability, T/C was 4.56% under setting [30]; 4.19% under setting [31]; 4.75% under setting [32]; 5.11% under setting [33]; 6.37% under setting [34]; 7.28% under setting [35].
In the case of `[2H]c1nc(C)nc([2H])c1-c1cc(NC[C@@H](C)c2cccc3c(C(=O)NC)ccnc23)ncn1`, the viability, T/C was 95.9% and 98.9% and 105% (compound 0.0316 µM); 98.9% and 99.4% and 98.4% (compound 0.1 µM); 95.8% and 98.1% and 101% (compound 0.316 µM); 99.1% and 97.4% and 99.5% (compound 1 µM); 99% and 92.2% and 97% (compound 3.16 µM); 93.9% and 84.6% and 93% (compound 10 µM). For the same compound, under “curve of compound”, the IC50 is above 10000 nM.
`Cc1cc(C)c(CNC(=O)c2cc(-c3ccc(CN4CCOCC4)cc3)cc3c2cnn3C2CCCC2)c(=O)[nH]1`: the viability, T/C by setting is: (compound 0.0316 µM) 109% and 94.6% and 92.3%; (compound 0.1 µM) 107% and 99.1% and 103%; (compound 0.316 µM) 107% and 106% and 102%; (compound 1 µM) 107% and 102% and 91.9%; (compound 3.16 µM) 104% and 95.3% and 96.5%; (compound 10 µM) 64.3% and 69.4% and 77.4%. Moreover, the IC50 (curve of compound) is above 10000 nM.
Take `COc1cc(C)[nH]c(=O)c1CN1CCc2c(Cl)cc(C(OC)C3COC3)c(Cl)c2C1=O` (centres undefined) + CC[C@@]1(O)C(=O)OCc2c1cc1n(c2=O)Cc2cc3c(CN(C)C)c(O)ccc3nc2-1: the IC50 is above 10000 nM under setting [1]; 438 nM under setting [2]; below 31.6 nM under setting [3]; below 31.6 nM under setting [4]; below 31.6 nM under setting [5]. Moreover, the viability, T/C under setting [6] was 85.5%; the viability, T/C under setting [7] was 83.2%; the viability, T/C under setting [8] is 69.1%; the viability, T/C under setting [9] was 63%; the viability, T/C under setting [10] is 63.7%; the viability, T/C under setting [11] was 56.1%. Also, the viability, T/C is, setting by setting: under setting [12], 58.4%; under setting [13], 59.4%; under setting [14], 50.4%; under setting [15], 46%; under setting [16], 42.4%; under setting [17], 42.8%. Moreover, the viability, T/C runs as follows: under setting [18], 13.6%; under setting [19], 10.9%; under setting [20], 13.4%; under setting [21], 13.3%; under setting [22], 14.6%; under setting [23], 15.1%. In addition, the viability, T/C under setting [24] was 9.27%; the viability, T/C under setting [25] was 10.6%; the viability, T/C under setting [26] was 9.37%; the viability, T/C under setting [27] was 11%; the viability, T/C under setting [28] is 11.4%; the viability, T/C under setting [29] was 13.1%. Besides, the viability, T/C is, setting by setting: under setting [30], 6.06%; under setting [31], 6.42%; under setting [32], 6.42%; under setting [33], 7.59%; under setting [34], 8.41%; under setting [35], 8.2%.
With `[2H]c1nc(C)nc([2H])c1-c1cc(NC[C@@H](C)c2cccc3c(C(=O)NC)ccnc23)ncn1` + CC[C@@]1(O)C(=O)OCc2c1cc1n(c2=O)Cc2cc3c(CN(C)C)c(O)ccc3nc2-1, the IC50 is, setting by setting: under setting [1], above 10000 nM; under setting [2], above 10000 nM; under setting [3], below 31.6 nM; under setting [4], below 31.6 nM; under setting [5], below 31.6 nM. Also, the viability, T/C was 89.6% under setting [6]; 93.9% under setting [7]; 90.5% under setting [8]; 96.5% under setting [9]; 87.9% under setting [10]; 78.7% under setting [11]. Also, the viability, T/C under setting [12] is 62%; the viability, T/C under setting [13] was 64.5%; the viability, T/C under setting [14] is 61.5%; the viability, T/C under setting [15] was 63.9%; the viability, T/C under setting [16] was 58%; the viability, T/C under setting [17] was 53.9%. Besides, the viability, T/C runs as follows: under setting [18], 14.2%; under setting [19], 13.6%; under setting [20], 11.1%; under setting [21], 13.1%; under setting [22], 14%; under setting [23], 16.3%. Moreover, the viability, T/C reads like this: under setting [24], 11%; under setting [25], 11.4%; under setting [26], 9.48%; under setting [27], 10.8%; under setting [28], 11.6%; under setting [29], 12%. Moreover, the viability, T/C is 6.74% under setting [30]; 7.54% under setting [31]; 7.42% under setting [32]; 6.87% under setting [33]; 7.23% under setting [34]; 8.83% under setting [35].
